# Key:
# [1] = target: SARS-CoV-2 Main Protease (SARS-CoV-2) (UniProt P0DTD1)
# [2] = target: SARS-CoV-2 Main Protease (SARS-CoV-2) (UniProt P0DTD1); remark: listed apart in the source
SMILES,inhibition ([1]; 20.0 µM) [%],inhibition ([1]; 50.0 µM) [%],inhibition ([2]; 20.0 µM) [%],relative solubility at 20 uM,relative solubility at 100 uM,inhibition ([2]; 50.0 µM) [%],IC50 [2] [µM],IC50 [1] [µM]
N#Cc1cccc(NC(=O)Cc2c[nH]c3ncccc23)c1,2.74,2.91,0,1,0.95,–,–,–
O=C(CCl)N1CCN(Cc2nc(-c3cccs3)no2)CC1,6.55,17,–,0.98,0.93,0,–,–
C=CC(=O)N(c1ccc(C(C)(C)C)cc1)C(C(=O)NC1CC1)c1cccnc1 (configuration not stated),25.4,33,8.67,1.01,1,33.3,–,–
CC(=O)N1CCN(CC(=O)Nc2cccc(S(N)(=O)=O)c2)CC1,-3.12,2.63,0,1,1,–,–,–
O=C(NCc1cnn2ccccc12)c1cccnc1OCCO,-18.2,-28.9,0,1,1.01,0,–,–
C=CC(=O)N(c1ccc(C2(C)CC2)cc1)C(C(=O)Nc1c(C)cccc1CC)c1cccnc1 (configuration not stated),–,20.9,0,0.8,0.68,20.4,–,–
CN(C(=O)C1CCOc2ccc(Cl)cc21)c1ccc(Cl)cn1 (configuration not stated),0.542,9.88,–,0.99,0.98,0,–,–
C=CC(=O)N1CCN(Cc2cc(Cl)cc3ccccc23)CC1,–,37.9,0,0.86,0.75,0,–,–
C=CC(=O)N(c1cc(C(C)(C)C)on1)C(C(=O)Nc1c(C)cccc1CC)c1cccnc1 (configuration not stated),7.33,21.1,1.49,0.99,0.9,–,–,–
CN(CC1COc2ccccc2O1)C(=O)c1cc(=O)[nH]c2cc(F)ccc12 (configuration not stated),-3.67,15.3,–,0.98,0.99,0,–,–
Cc1ccncc1NC(=O)Nc1cccc(Cl)c1,32.1,58.7,25.6,0.99,0.96,64.1,45.7,–
O=C(c1ccccc1)N1CCN(C(=O)c2nn(-c3ccccc3C(F)(F)F)cc2O)CC1,-48,-1.44,–,0.99,0.95,0,–,–
Cc1ccncc1NC(=O)Cc1cccc(CO)c1,2.87,6.05,–,1,1,1.14,–,–
O=C(Nc1cccnc1)c1cccc(Cl)c1,5.47,6.67,0,1,0.92,–,–,–
C=CC(=O)N(c1ccc(C2(C)CC2)cc1)C(C(=O)Nc1ccc(OC)cc1C)c1cccnc1 (configuration not stated),–,6.08,0,1,0.52,0,–,–
CN(C)C(=O)C[C@@H]1CN(C(=O)c2cnn3c2CCC3)c2ccc(Cl)cc21 (stereo in doubt),-17.5,-10.8,0,1,1,–,–,–
CC(NC(=O)C(Cc1ccccc1)NC(=O)c1ccco1)c1ncco1 (configuration not stated),–,-28,0,1,1,0,–,–
O=C(c1cc(=O)[nH]c2cc(F)ccc12)N1CCN(S(=O)(=O)c2ccccc2)CC1,12.6,30.7,–,0.98,0.99,0,–,–
COc1ccc(N2CCN(C(=O)c3cc(=O)[nH]c4ccccc34)CC2)cc1,61.4,81.7,–,1,1,51.4,95.7,–
O=C(Cn1c(=O)[nH]c2ccccc21)Nc1cccc(Cl)c1,-4.28,-9.78,–,1,0.64,0,–,–
C=CC(=O)N(C1COC2(CCC2)C1)C(C(=O)NC(C)(C)C)c1cccnc1 (configuration not stated),12.6,13.4,0,0.97,0.96,–,–,–
CCc1nnnn1-c1ccccc1NC(=O)C1(c2cncc(Br)c2)CC1,–,10.2,0,1,1,0,–,–
CC(OCC1CCCCO1)C(=O)N(CCc1ccccc1)Cc1cccnc1 (configuration not stated),–,-20.6,0,1,1,0,–,–
CS(=O)(=O)Nc1cccc(C(=O)Nc2cccc(N3CCCC3=O)c2)c1,0.866,5.19,0,1,0.99,–,–,–
O=C(CCl)N1CCN(S(=O)(=O)c2cccs2)CC1,99.3,99.6,97.9,1,1,97.8,0.557,–

SMILES,inhibition ([1]; 20.0 µM) [%],inhibition ([1]; 50.0 µM) [%],inhibition ([2]; 20.0 µM) [%],relative solubility at 20 uM,relative solubility at 100 uM,inhibition ([2]; 50.0 µM) [%],IC50 [2] [µM],IC50 [1] [µM]
CC1CN(Cc2ccccc2NC(=O)NCc2cnsc2)CC(C)O1 (configuration not stated),1.48,4.44,0,1,0.98,1.33,–,–
N#Cc1cnn(-c2ccccc2NC(=O)Cc2ccn[nH]2)c1N,-9.14,2.96,0,1,0.96,–,–,–
NS(=O)(=O)c1ccc(N2CCC(c3nc4ccccc4s3)CC2)cc1,-11.9,-12,0,0.76,0.52,–,–,–
CC(NC(=O)c1ccccc1OC1CCCCC1)c1cnccn1 (configuration not stated),–,11.2,0,1,1,0,–,–
O=C(NCCc1ccc2c(c1)CCO2)NCc1cccc(N2C(=O)NC3(CCCC3)C2=O)c1,-29,-12,–,0.95,0.97,-30.5,–,–
Cc1cccc(C2CN(C(=O)CCl)Cc3ccccc32)c1 (configuration not stated),98.1,99.7,–,1,0.93,53.8,0.42,–
Cc1nnn(C)c1NC(=O)Cc1cccc(Cl)c1,-9.24,-12.3,–,1,1,5.47,–,–
O=C(c1cc(=O)[nH]c2ccccc12)N1CCN(S(=O)(=O)c2ccccc2)CC1,16.1,40.7,–,0.98,0.97,3.07,–,–
Cc1ccncc1NC(=O)C(C)CC1CC1 (configuration not stated),-2.37,2.12,–,1,1,0,–,–
O=C(CC(=O)N1CCOCC1)NCc1ccccc1,-1.44,15.1,0,0.99,1,0,–,–
O=C(CCl)N1CCN(C(c2ccccc2)C2CCCCC2)CC1 (configuration not stated),95.8,98.1,–,0.98,0.78,95.6,0.644,4.13
O=C(Nc1ccccc1)c1cc(Cl)ccc1O,3.75,8.41,0,1,0.89,–,–,–
O=C(CCl)Nc1nc2c(S(=O)(=O)NCCc3ccccc3)cccc2s1,58,74.5,–,0.89,0.66,80.3,8.55,13.9
C=CC(=O)N(c1ccc(C(C)(C)CC)cc1)C(C(=O)Nc1cccc(F)c1C)c1cccnc1 (configuration not stated),16.3,31.8,3.79,0.86,0.72,–,–,–
O=C(Cc1c[nH]c2ncccc12)N1CCC(N2CCCS2(=O)=O)CC1,18.5,-1.92,0,1,1.01,–,–,–
N#Cc1cc(CN2CCN(C(=O)CCl)CC2)c2ccccc2c1,83.6,93.1,97.6,0.85,0.79,–,1.16,–
C=CC(=O)N(c1ccc(C(C)(C)C)cc1)C(C(=O)NC(C)(C)C)c1cccnc1C (configuration not stated),-1.34,2.24,0,0.99,0.99,0,–,–
CO[C@@H](C)C(=O)Nc1cnccc1C (stereo in doubt),1.23,0.255,–,1,1.01,6.67,–,–
CC(=O)NCCc1c[nH]c2c(NCc3ccc4nc[nH]c4c3)cc(F)cc12,-13.7,12.1,–,0.64,0.86,-4.42,–,–
CCC(NC(=O)C(C)n1cncn1)c1ccccc1OCC(=O)N1CCCC1 (configuration not stated),-0.907,0.701,0,1,0.99,0,–,–
O=C1CN(c2nnc(C3CCC(=O)N3)n2CCn2cc(Cl)cn2)CCN1 (configuration not stated),-2.26,-0.405,–,1,1,35.3,–,–
O=C(NCc1cccc(C(=O)N2CCOCC2)c1)c1cnc2c(c1)c(=O)[nH]c(=O)n2Cc1ccccc1,2.69,-3.76,–,0.99,0.9,0,–,–
CCCNC(=O)C(C)NC(=O)N(C)Cc1csc(C)n1 (configuration not stated),0.814,-2.74,0,1,1,–,–,–
C=CC(=O)N(c1ccc(C(F)(F)F)cc1)C(C(=O)NCCc1cccc(F)c1)c1cncc(C#N)c1 (configuration not stated),53.5,93.2,–,1,0.99,96.5,3.01,–
O=C(CCl)N1CCCC(N(CC2CCCCC2)C2CCC(O)CC2)C1 (configuration not stated),-11.8,7.36,–,1,1,24.9,–,–

SMILES,inhibition ([1]; 20.0 µM) [%],inhibition ([1]; 50.0 µM) [%],inhibition ([2]; 20.0 µM) [%],relative solubility at 20 uM,relative solubility at 100 uM,inhibition ([2]; 50.0 µM) [%],IC50 [2] [µM],IC50 [1] [µM]
CCn1c(=O)n(CC(=O)Nc2c(C)ccnc2C)c2ccccc21,-1.64,-2.86,–,1,1,0,–,–
COc1cc(NC(=O)C(=O)Nc2cc(OC)c(OC)c(OC)c2)cc(OC)c1OC,-9.4,4.05,0.456,0.99,0.92,–,–,–
O=C(Cc1cccnc1Cl)Nc1cccc(OCCc2ccccc2)c1,1.54,6.9,0,0.81,0.27,5.03,–,–
O=C(CCl)N1CCN(S(=O)(=O)c2c(F)cccc2F)CC1,98.7,104,98.6,0.96,0.88,99.2,2.62,–
C=CC(=O)N(c1ccc(C(C)(C)C)cc1)C(C(=O)NC(C)(C)C)c1cnc[nH]1 (configuration not stated),-20.2,-23.6,0,0.99,0.89,0,–,–
Cc1ccc(C)c(N(C)C(=O)Cc2cnn(C)c2C)c1,7.75,11.4,–,0.97,0.98,0,–,–
C=CC(=O)N(c1ccc(S(F)(F)(F)(F)F)cc1)C(C(=O)NC(C)(C)C)c1cccnc1 (configuration not stated),11.1,23,6.54,0.98,0.9,–,–,–
C[C@H]1CN(Cc2ccccc2)CC[C@@H]1NC(=O)C(=O)NCc1ccccc1CN1CCCC[C@@H]1C (stereo in doubt),-2.35,1.34,–,1,0.99,0,–,–
Cc1noc(CC(NC(=O)C(C)Cn2ccnc2)c2ccccc2)n1 (configuration not stated),–,-2.38,0,1,1,0,–,–
C=CC(=O)N1CCCC(N(CC2CCCCC2)C2CCC(O)CC2)C1 (configuration not stated),-4.47,-0.824,–,1,1,0,–,–
Cc1ccc(S(=O)(=O)N2CCN(C(=O)c3cc(=O)[nH]c4ccc(Cl)cc34)CC2)cc1,-0.869,-0.533,–,0.97,0.88,11.5,–,–
Cn1cnnc1NC(=O)Cc1cccc(Cl)c1F,5.1,-1.13,–,0.98,0.99,-13.1,–,–
NS(=O)(=O)c1ccc(N2CCC(Nc3ccccc3)CC2)cc1,–,9.57,27.2,1,1,22,–,–
O=C(NCc1ccno1)c1ccccc1OC1CCCCC1,4.09,5.82,0,1,1,–,–,–
COc1ccc(C2CC(c3ccccc3)=NN2C(=O)CCl)cc1OC (configuration not stated),100,99.6,–,0.99,0.85,100,0.421,–
Cc1ccncc1NC(=O)Nc1cncc(C#N)c1,3.67,3.96,–,1,1,15.5,–,–
C=CC(=O)N(c1cc(C(C)(C)C)on1)C(C(=O)NCCc1cccc(F)c1)c1cccnc1 (configuration not stated),16.7,31.3,–,0.98,0.97,100,10.9,–
O=C(C1CCN(c2ccncc2)CC1)N1CCCCC1,–,-18.6,0,0.99,1,-0.3,–,–
O=C(Nc1cnccc1Cl)c1cc(Cl)ccc1O,66.8,75.2,15.5,1,0.98,65.9,–,–
O=C(CC(=O)Nc1ccncc1)Nc1ccccc1,–,12,0,1,1,0,–,–
O=C(Cc1ccc2ccccc2c1)Nc1cc(C(F)(F)F)ccn1,-2.55,3.43,11,0.9,0.38,29.3,–,–
Cc1cccc(NC(=O)C(C#N)C(=O)C2CCC2)c1 (configuration not stated),–,1.6,0.951,0.99,0.99,0,–,–
CCC(CC)C(=O)C(C#N)C(=O)Nc1ccc(F)cc1 (configuration not stated),–,-16.2,0,1,1,0,–,–
C=CC(=O)N(c1ccc(C(C)(C)C)cc1)C(C(=O)N[C@H]1CC[C@@H](C(=O)OC)C1)c1cccnc1 (stereo in doubt),7.31,22.2,0,1,0.98,6.96,–,–
